Experimental data published in US6706740B2, “Fungicidal heterocyclic aromatic amides and their compositions, methods of use and preparation” (Dow AgroSciences LLC, priority 1999, dated 2004).

Each compound was assayed on Magnaporthe grisea (Pyricularia oryzae—PYRIOR) (assay: microbe, parasite or virus in culture). Conditions: Pyricularia oryzae, read-out: PYRIOR in vitro Growth Inhibition.
Type: cell-based

Question: Which inhibition at 25 ppm does the source give for COc1ccnc(C(=O)Nc2ccc(Oc3ccc(C)cc3)cc2)c1O [Compound 417] here?
Answer: > 80%

Question: For COc1ccnc(C(=O)Nc2ccc(OCc3ccc(C(F)(F)F)cc3)cc2)c1O [Compound 448], which inhibition at 25 ppm is on record?
Answer: < 80%

Question: COc1ccnc(C(=O)N[C@H]2CO[C@H](C(C)Cc3ccc(C(C)(C)C)cc3)OC2)c1OC(C)=O (some centres unmarked) [Compound 594] was tested. Which inhibition at 25 ppm did it give?
Answer: > 80%

Question: COc1ccnc(C(=O)NC2CCCC(Sc3ccc(C(F)(F)F)cn3)C2)c1O (centres unmarked) [Compound 274] was tested. Which inhibition at 25 ppm did it give?
Answer: > 80%

These compounds were tested on Rhizoctonia solani (RHIZSO) (assay: microbe, parasite or virus in culture). Conditions: Rhizoctonia solani, read-out: RHIZSO in vitro Growth Inhibition.
Type: cell-based

Question: Which inhibition at 25 ppm does the source give for COc1ccnc(C(=O)Nc2ccc(Oc3ccc(C)cc3)cc2)c1O [Compound 417] here?
Answer: < 80%

Question: For COc1ccnc(C(=O)Nc2ccc(OCc3ccc(C(F)(F)F)cc3)cc2)c1O [Compound 448], which inhibition at 25 ppm is on record?
Answer: < 80%

Question: Which inhibition at 25 ppm does the source give for COc1ccnc(C(=O)N[C@H]2CO[C@H](C(C)Cc3ccc(C(C)(C)C)cc3)OC2)c1OC(C)=O (some centres unmarked) [Compound 594] here?
Answer: > 80%

Question: How did the inhibition at 25 ppm turn out when COc1ccnc(C(=O)NC2CCCC(Sc3ccc(C(F)(F)F)cn3)C2)c1O (centres unmarked) [Compound 274] was run?
Answer: > 80%

Each compound was assayed on Mycosphaerella graminicola (Septoria tritici—SEPTTR) (assay: In vitro fungal growth inhibition, Mycosphaerella graminicola (SEPTTR)). Conditions: Zymoseptoria tritici; 25 ppm in growth medium; read-out: SEPTTR in vitro Growth Inhibition.
Type: cell-based

Question: COc1ccnc(C(=O)Nc2ccc(Oc3ccc(C)cc3)cc2)c1O [Compound 417] was tested. Which inhibition at 25 ppm did it give?
Answer: > 80%

Question: Which inhibition at 25 ppm does the source give for COc1ccnc(C(=O)Nc2ccc(OCc3ccc(C(F)(F)F)cc3)cc2)c1O [Compound 448] here?
Answer: < 80%

Question: COc1ccnc(C(=O)NC2CCCC(Sc3ccc(C(F)(F)F)cn3)C2)c1O (centres unmarked) [Compound 274] was tested. Which inhibition at 25 ppm did it give?
Answer: > 80%

Same assay, conditions: Zymoseptoria tritici; 25 ppm in the growth medium; read-out: SEPTTR in vitro Growth Inhibition

Question: Which inhibition at 25 ppm does the source give for COc1ccnc(C(=O)N[C@H]2CO[C@H](C(C)Cc3ccc(C(C)(C)C)cc3)OC2)c1OC(C)=O (some centres unmarked) [Compound 594] here?
Answer: > 80%

The compounds below were run on Stagonospora nodorum (Leptosphaeria nodorum—LEPTNO) (assay: In vitro fungal growth inhibition, Stagonospora nodorum (LEPTNO)). Conditions: Leptosphaeria; 25 ppm in growth medium; read-out: LEPTNO in vitro Growth Inhibition.
Type: cell-based

Question: For COc1ccnc(C(=O)Nc2ccc(Oc3ccc(C)cc3)cc2)c1O [Compound 417], which inhibition at 25 ppm is on record?
Answer: < 80%

Question: With COc1ccnc(C(=O)Nc2ccc(OCc3ccc(C(F)(F)F)cc3)cc2)c1O [Compound 448] as the compound, how does the inhibition at 25 ppm read?
Answer: < 80%

Question: Which inhibition at 25 ppm does the source give for COc1ccnc(C(=O)NC2CCCC(Sc3ccc(C(F)(F)F)cn3)C2)c1O (centres unmarked) [Compound 274] here?
Answer: > 80%

Same assay, conditions: Leptosphaeria; 25 ppm in the growth medium; read-out: LEPTNO in vitro Growth Inhibition

Question: Which inhibition at 25 ppm does the source give for COc1ccnc(C(=O)N[C@H]2CO[C@H](C(C)Cc3ccc(C(C)(C)C)cc3)OC2)c1OC(C)=O (some centres unmarked) [Compound 594] here?
Answer: > 80%

The compounds below were run on Ustilago maydis (USTIMA) (assay: microbe, parasite or virus in culture). Conditions: Mycosarcoma maydis, read-out: USTIMA in vitro Growth Inhibition.
Type: cell-based

Question: How did the inhibition at 25 ppm turn out when COc1ccnc(C(=O)Nc2ccc(Oc3ccc(C)cc3)cc2)c1O [Compound 417] was run?
Answer: < 80%

Question: For COc1ccnc(C(=O)Nc2ccc(OCc3ccc(C(F)(F)F)cc3)cc2)c1O [Compound 448], which inhibition at 25 ppm is on record?
Answer: > 80%

Question: COc1ccnc(C(=O)N[C@H]2CO[C@H](C(C)Cc3ccc(C(C)(C)C)cc3)OC2)c1OC(C)=O (some centres unmarked) [Compound 594] was tested. Which inhibition at 25 ppm did it give?
Answer: < 80%

Question: For COc1ccnc(C(=O)NC2CCCC(Sc3ccc(C(F)(F)F)cn3)C2)c1O (centres unmarked) [Compound 274], which inhibition at 25 ppm is on record?
Answer: < 80%

What follows are compounds tested on Phytophthora infestans (PHYTIN) (assay: microbe, parasite or virus in culture). Conditions: Phytophthora infestans, read-out: PHYTIN in vitro Growth Inhibition.
Type: cell-based

Question: COc1ccnc(C(=O)Nc2ccc(Oc3ccc(C)cc3)cc2)c1O [Compound 417] was tested. Which inhibition at 25 ppm did it give?
Answer: < 80%

Question: With COc1ccnc(C(=O)Nc2ccc(OCc3ccc(C(F)(F)F)cc3)cc2)c1O [Compound 448] as the compound, how does the inhibition at 25 ppm read?
Answer: < 80%

Question: With COc1ccnc(C(=O)N[C@H]2CO[C@H](C(C)Cc3ccc(C(C)(C)C)cc3)OC2)c1OC(C)=O (some centres unmarked) [Compound 594] as the compound, how does the inhibition at 25 ppm read?
Answer: < 80%

Question: Which inhibition at 25 ppm does the source give for COc1ccnc(C(=O)NC2CCCC(Sc3ccc(C(F)(F)F)cn3)C2)c1O (centres unmarked) [Compound 274] here?
Answer: > 80%

The compounds below were run on Phytophthora infestans—PHYTIN (assay: whole plant or invertebrate). Conditions: Phytophthora, in Solanum lycopersicum, 24 h, read-out: PHYTIN in vivo 1 Day Protectant.
Type: in vivo

Question: For COc1ccnc(C(=O)Nc2ccc(Oc3ccc(C)cc3)cc2)c1O [Compound 417], which pest or weed control at 100 ppm is on record?
Answer: < 25%

Question: For COc1ccnc(C(=O)Nc2ccc(OCc3ccc(C(F)(F)F)cc3)cc2)c1O [Compound 448], which pest or weed control at 100 ppm is on record?
Answer: < 25%

Question: For COc1ccnc(C(=O)N[C@H]2CO[C@H](C(C)Cc3ccc(C(C)(C)C)cc3)OC2)c1OC(C)=O (some centres unmarked) [Compound 594], which pest or weed control at 100 ppm is on record?
Answer: < 25%

Question: For COc1ccnc(C(=O)NC2CCCC(Sc3ccc(C(F)(F)F)cn3)C2)c1O (centres unmarked) [Compound 274], which pest or weed control at 100 ppm is on record?
Answer: < 25%

What follows are compounds tested on Puccinia recondita—PUCCRT (assay: Brown Rust of Wheat, in vivo whole plant, 24 Hour Protectant). Conditions: 100 ppm spray, 24 hour protectant, wheat; control of fungal infection vs untreated plants.

Question: With COc1ccnc(C(=O)NC2CCCC(Sc3ccc(C(F)(F)F)cn3)C2)c1O (centres unmarked) [Compound 274] as the compound, how does the “PUCCRT in vivo 1 Day Protectant” value read?
Answer: + +

Same assay, conditions: Puccinia; 100 ppm spray, wheat, 24 hour protectant; control of fungal infection vs untreated plants; read-out: PUCCRT in vivo 1 Day Protectant

Question: For COc1ccnc(C(=O)Nc2ccc(Oc3ccc(C)cc3)cc2)c1O [Compound 417], which pest or weed control at 100 ppm is on record?
Answer: < 25%

Question: COc1ccnc(C(=O)Nc2ccc(OCc3ccc(C(F)(F)F)cc3)cc2)c1O [Compound 448] was tested. Which pest or weed control at 100 ppm did it give?
Answer: 25 to 74%

Same assay, conditions: wheat plants sprayed at 100 ppm, inoculated after 24 hours; control of fungal infection vs untreated plants

Question: For COc1ccnc(C(=O)N[C@H]2CO[C@H](C(C)Cc3ccc(C(C)(C)C)cc3)OC2)c1OC(C)=O (some centres unmarked) [Compound 594], which “PUCCRT in vivo 1 Day Protectant” value is on record?
Answer: + +

Each compound was assayed on Erysiphe graminis—ERYSGT (assay: Powdery Mildew of Wheat, in vivo whole plant, 24 Hour Protectant). Conditions: Erysiphe; 100 ppm spray, 24 hour protectant, wheat; control of fungal infection vs untreated plants; read-out: ERYSGT in vivo 1 Day Protectant.

Question: With COc1ccnc(C(=O)NC2CCCC(Sc3ccc(C(F)(F)F)cn3)C2)c1O (centres unmarked) [Compound 274] as the compound, how does the pest or weed control at 100 ppm read?
Answer: < 25%

Same assay, conditions: Erysiphe; 100 ppm spray, wheat, 24 hour protectant; control of fungal infection vs untreated plants; read-out: ERYSGT in vivo 1 Day Protectant

Question: COc1ccnc(C(=O)Nc2ccc(Oc3ccc(C)cc3)cc2)c1O [Compound 417] was tested. Which pest or weed control at 100 ppm did it give?
Answer: < 25%

Question: For COc1ccnc(C(=O)Nc2ccc(OCc3ccc(C(F)(F)F)cc3)cc2)c1O [Compound 448], which pest or weed control at 100 ppm is on record?
Answer: < 25%

Same assay, conditions: Erysiphe; wheat plants sprayed at 100 ppm, inoculated after 24 hours; control of fungal infection vs untreated plants; read-out: ERYSGT in vivo 1 Day Protectant

Question: Which pest or weed control at 100 ppm does the source give for COc1ccnc(C(=O)N[C@H]2CO[C@H](C(C)Cc3ccc(C(C)(C)C)cc3)OC2)c1OC(C)=O (some centres unmarked) [Compound 594] here?
Answer: < 25%

Each compound was assayed on Septoria tritici—SEPTTR (assay: Leaf Blotch of Wheat, in vivo whole plant, 24 Hour Protectant). Conditions: Zymoseptoria tritici, 24 h, 100 ppm spray, 24 hour protectant, wheat; control of fungal infection vs untreated plants; read-out: SEPTTR in vivo 1 Day Protectant.

Question: Which pest or weed control at 100 ppm does the source give for COc1ccnc(C(=O)NC2CCCC(Sc3ccc(C(F)(F)F)cn3)C2)c1O (centres unmarked) [Compound 274] here?
Answer: 25 to 74%

Same assay, conditions: Zymoseptoria tritici, 24 h, 100 ppm spray, wheat, 24 hour protectant; control of fungal infection vs untreated plants; read-out: SEPTTR in vivo 1 Day Protectant

Question: For COc1ccnc(C(=O)Nc2ccc(Oc3ccc(C)cc3)cc2)c1O [Compound 417], which pest or weed control at 100 ppm is on record?
Answer: < 25%

Question: With COc1ccnc(C(=O)Nc2ccc(OCc3ccc(C(F)(F)F)cc3)cc2)c1O [Compound 448] as the compound, how does the pest or weed control at 100 ppm read?
Answer: 25 to 74%

Same assay, conditions: Zymoseptoria tritici, 24 h, wheat plants sprayed at 100 ppm, inoculated after 24 hours; control of fungal infection vs untreated plants; read-out: SEPTTR in vivo 1 Day Protectant

Question: COc1ccnc(C(=O)N[C@H]2CO[C@H](C(C)Cc3ccc(C(C)(C)C)cc3)OC2)c1OC(C)=O (some centres unmarked) [Compound 594] was tested. Which pest or weed control at 100 ppm did it give?
Answer: 25 to 74%

The compounds below were run on Leptosphaeria nodorum—LEPTNO (assay: Glume Blotch of Wheat, in vivo whole plant, 24 Hour Protectant). Conditions: 100 ppm spray, 24 hour protectant, wheat; control of fungal infection vs untreated plants.

Question: With COc1ccnc(C(=O)NC2CCCC(Sc3ccc(C(F)(F)F)cn3)C2)c1O (centres unmarked) [Compound 274] as the compound, how does the “LEPTNO in vivo 1 Day Protectant” value read?
Answer: + +

Same assay, conditions: 100 ppm spray, wheat, 24 hour protectant; control of fungal infection vs untreated plants

Question: With COc1ccnc(C(=O)Nc2ccc(Oc3ccc(C)cc3)cc2)c1O [Compound 417] as the compound, how does the “LEPTNO in vivo 1 Day Protectant” value read?
Answer: + +

Question: How did the “LEPTNO in vivo 1 Day Protectant” value turn out when COc1ccnc(C(=O)Nc2ccc(OCc3ccc(C(F)(F)F)cc3)cc2)c1O [Compound 448] was run?
Answer: + +

Same assay, conditions: Leptosphaeria; wheat plants sprayed at 100 ppm, inoculated after 24 hours; control of fungal infection vs untreated plants; read-out: LEPTNO in vivo 1 Day Protectant

Question: With COc1ccnc(C(=O)N[C@H]2CO[C@H](C(C)Cc3ccc(C(C)(C)C)cc3)OC2)c1OC(C)=O (some centres unmarked) [Compound 594] as the compound, how does the pest or weed control at 100 ppm read?
Answer: 25 to 74%
